This is an account of results in patent EP2650284A1, “Heterocyclic derivatives as metabotropic glutamate receptor modulators” (Merz Pharma GmbH & Co. KGaA, priority 2012, dated 2013).

The target of experiment [1] is T1, human metabotropic glutamate receptor mGluR5 (Homo sapiens, UniProt P41594).
T1 construct: expressed in transfected cells; host or cells: CHO-K1 (h5CHO), IPTG-inducible
In words: Cytosolic calcium studies with stably transfected cells (h5CHO), functional assay of mGluR5 receptors. Conditions: for h left shift / EC50: Table A1; for h left shift: left shift of agonist EC50, dose response curves in the presence of 10 µM modulator or vehicle; for h left shift / IC50: h5CHO cells; for EC50: positive modulators, h5CHO cells preincubated with modulator, stimulated by an EC20 concentration of L-glutamate, read-out: hEC50; for IC50: Table A2, negative modulation, compounds added 5 minutes before L-quisqualic acid (~80% of the maximal signal), read-out: hIC50. The class given is cell-based. The procedure: Chinese hamster ovary cells (CHO-K1 cells), stably transfected for inducible expression of a human metabotropic glutamate receptor mGluR5 to form a cell line called h5CHO, are seeded into black clear bottom 96 well plates at a density of 35.000 cells per well. The standard growth medium used (Dulbecco's modified Eagle Medium, DMEM plus L-proline) contains the appropriate inducer isopropyl-β-D-thiogalactopyranosid (IPTG) to achieve optimal receptor expression. One day after seeding the growth medium is exchanged for reconstituted Ca-Kit (Molecular Devices, USA) and incubated for one hour. Ca-Kit is reconstituted in an assay buffer containing 20 mM HEPES pH 7.4, glutamic-pyruvate transaminase, pyridoxal phosphate and sodium pyruvate in Hank's balanced salt solution (HBBS). Agonistic compounds to the receptor elicit increases in cytosolic calcium which can be measured as increases in fluorescence signals by use of a fluorescence imaging plate reader (Molecular Devices). To analyze their potency to negatively modulate the Ca-response test compounds, dissolved in a final DMSO concentration of 0.5%, are added on-line 5 minutes before the agonist to the receptor (L-quisqualic acid at a concentration giving ~80% of the maximal signal). EC50 values for positive allosteric modulators were determined by stimulating the cells which have been preincubated the modulators by an EC20 concentration of L-glutamate.
(§1) The fluorescence signal increase after addition of agonist reflects the increase of cytosolic calcium. Inconsistencies in the amount of cells per well are normalised by using the spatial uniformity correction of the FLIPR operating software Screenworks. The mean of replicated temporal data (n=3-5) is calculated and used for graphical representation. For the evaluation of the pharmacology, the calcium changes in response to different concentrations of agonist or antagonist are determined using a maximum minus minimum (MaxMin) calculation.
(§2) All responses (RFU-values) are determined as percentage of control (= maximum response). EC50 and IC50 are calculated according the logistic equation using XLFit (IDBS, UK) or Prism 4.0 (GraphPad Software, USA). The compounds of the present invention have a potency (EC50 or IC50) within a range of about 0.5 nM to about 100 µM. The left shifts for positive or slient allosteric modulators (PAMs or SAMs, respectively) are determined by comparison of EC50 values from agonist dose response curves run in the presence of 10 µM modulator or vehicle (Vanejevs et al., J. Med. Chem., 2008, 51, 634-647).

Another experiment concerns the target T2, mGluR5 receptors (Rattus norvegicus, UniProt P31424).
T2 construct: Primary astrocyte cultures are prepared from cortices of newborn rats; endogenous in cells; host or cells: primary cortical astrocytes from Sprague-Dawley rat pups (2-4 d old)
In words: Cytosolic calcium studies with astrocytes (FLIPR), functional assay of mGluR5 receptors. The following applies: for r left shift: Table A1, left shift of quisqualate EC50 in the presence and absence of 10 µM modulator; for EC50: Table A1, positive modulators, fixed concentration of quisqualate (normally 10-30 nM), read-out: rEC50. Format: cell-based. The procedure: Primary astrocyte cultures are prepared from cortices of newborn rats as described by Booher and Sensenbrenner (1972, Neurobiology 2(3):97-105). Briefly, Sprague-Dawley rat pups (2 - 4 d old) are decapitated and neocortices are dissected, disintegrated with a nylon filter (pore size 80 µm) and carefully triturated. The cell suspension is plated on poly-D-lysine pre-coated flasks (Costar, Netherlands) and cultivated in Dulbecco's Modified Eagle's Medium (DMEM, Invitrogen, Germany) supplemented with 10% foetal calf serum (FCS, Sigma, Germany), 4 mM glutamine and 50 µg/ml gentamycin (both Biochrom, Germany) at 37°C in a humidified atmosphere of 5% CO2/ 95% air for 7 days with exchanging the medium at day 2 and 6.
After 7 days in vitro (DIV), cells are shaken overnight at 250 rpm to remove oligodendrocytes and microglia. The next day, astrocytes are rinsed twice with CMF-PBS (calcium- and magnesium-free phosphate buffered saline, Biochrom, Germany), trypsinized and subplated on poly-D-lysine pre-coated 96-well plates (Greiner, Germany) at a density of 40,000 cells/well. 24 h after establishing the secondary culture the astrocytes are rinsed with PBS^++ (phosphate buffered saline, Biochrom, Germany) and fed with astrocyte-defined medium (ADM) consisting of DMEM containing 1x G5-supplement (Invitrogen, Germany), 0.5 µg/ml heparan sulfate, and 1.5 µg/ml fibronectin (both Sigma, Germany) (Miller et al., (1993) Brain Res. 618(1):175-8). 3 days later the medium is exchanged and the cells incubated for another 2-3 days, so that at the time of experiments astrocytes are 14-15 DIV.
The increase of cytosolic calcium after stimulation with the mGluR5 agonist L-quisqualate is measured using a fluorometric imaging plate reader (FLIPR) and the Ca-Kit (both Molecular Devices). Prior to addition of agonist or antagonist the medium is aspirated and cells are loaded for 2 h at RT with 150 µl of loading buffer consisting of Ca-sensitive dye reconstituted in sodium chloride (123 mM), potassium chloride (5.4 mM), magnesium chloride (0.8 mM), calcium chloride (1.8 mM), D-glucose (15 mM), and HEPES (20 mM), pH 7.3. Subsequently, plates are transferred to FLIPR to detect calcium increase with the addition of L-quisqualate (100 nM) measured as relative fluorescence units (RFU). If antagonists are tested, these compounds are pre-incubated for 10 minutes at RT before addition of the respective agonist.
For positive modulators, concentration-response curves for quisqualate are performed in the presence and absence of 10 µM modulator to determine the extent of potentiation / agonist potency increase. Thereafter, concentration-response curves for the positive modulator are performed in the presence of a fixed concentration of quisqualate showing the biggest window for potentiation (normally 10-30 nM).
as §1, §2

T1 sequence (P41594 21-1212): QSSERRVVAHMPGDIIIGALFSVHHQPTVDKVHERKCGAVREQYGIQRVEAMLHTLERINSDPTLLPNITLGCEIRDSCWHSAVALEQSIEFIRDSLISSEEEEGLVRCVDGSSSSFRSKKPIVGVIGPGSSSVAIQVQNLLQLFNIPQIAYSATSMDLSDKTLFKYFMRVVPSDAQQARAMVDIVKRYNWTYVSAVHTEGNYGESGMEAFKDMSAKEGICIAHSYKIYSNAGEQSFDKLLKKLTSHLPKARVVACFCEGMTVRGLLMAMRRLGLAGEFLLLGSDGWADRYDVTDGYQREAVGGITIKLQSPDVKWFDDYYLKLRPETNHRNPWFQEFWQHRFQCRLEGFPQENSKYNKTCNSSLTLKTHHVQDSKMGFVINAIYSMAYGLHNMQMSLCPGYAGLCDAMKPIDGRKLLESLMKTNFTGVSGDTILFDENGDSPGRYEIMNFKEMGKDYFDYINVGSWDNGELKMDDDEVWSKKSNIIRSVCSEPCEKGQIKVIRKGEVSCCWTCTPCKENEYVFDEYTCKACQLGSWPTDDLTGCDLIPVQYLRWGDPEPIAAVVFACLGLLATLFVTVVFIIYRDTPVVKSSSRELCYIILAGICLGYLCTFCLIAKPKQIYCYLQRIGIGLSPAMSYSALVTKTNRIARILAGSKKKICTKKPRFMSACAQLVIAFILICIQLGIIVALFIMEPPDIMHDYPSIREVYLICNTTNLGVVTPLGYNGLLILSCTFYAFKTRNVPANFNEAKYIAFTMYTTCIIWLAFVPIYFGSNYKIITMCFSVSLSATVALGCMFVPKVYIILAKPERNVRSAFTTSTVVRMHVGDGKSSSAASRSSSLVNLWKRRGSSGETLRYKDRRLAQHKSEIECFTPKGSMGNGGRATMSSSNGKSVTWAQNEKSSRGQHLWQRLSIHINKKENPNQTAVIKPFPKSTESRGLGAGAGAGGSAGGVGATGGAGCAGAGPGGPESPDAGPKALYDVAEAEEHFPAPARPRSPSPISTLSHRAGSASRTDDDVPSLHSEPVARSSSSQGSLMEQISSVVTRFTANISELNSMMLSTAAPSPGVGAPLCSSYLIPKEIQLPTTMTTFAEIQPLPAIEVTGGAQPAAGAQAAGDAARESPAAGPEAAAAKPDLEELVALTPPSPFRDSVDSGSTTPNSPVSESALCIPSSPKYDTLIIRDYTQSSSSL
T2 sequence (P31424 21-1203): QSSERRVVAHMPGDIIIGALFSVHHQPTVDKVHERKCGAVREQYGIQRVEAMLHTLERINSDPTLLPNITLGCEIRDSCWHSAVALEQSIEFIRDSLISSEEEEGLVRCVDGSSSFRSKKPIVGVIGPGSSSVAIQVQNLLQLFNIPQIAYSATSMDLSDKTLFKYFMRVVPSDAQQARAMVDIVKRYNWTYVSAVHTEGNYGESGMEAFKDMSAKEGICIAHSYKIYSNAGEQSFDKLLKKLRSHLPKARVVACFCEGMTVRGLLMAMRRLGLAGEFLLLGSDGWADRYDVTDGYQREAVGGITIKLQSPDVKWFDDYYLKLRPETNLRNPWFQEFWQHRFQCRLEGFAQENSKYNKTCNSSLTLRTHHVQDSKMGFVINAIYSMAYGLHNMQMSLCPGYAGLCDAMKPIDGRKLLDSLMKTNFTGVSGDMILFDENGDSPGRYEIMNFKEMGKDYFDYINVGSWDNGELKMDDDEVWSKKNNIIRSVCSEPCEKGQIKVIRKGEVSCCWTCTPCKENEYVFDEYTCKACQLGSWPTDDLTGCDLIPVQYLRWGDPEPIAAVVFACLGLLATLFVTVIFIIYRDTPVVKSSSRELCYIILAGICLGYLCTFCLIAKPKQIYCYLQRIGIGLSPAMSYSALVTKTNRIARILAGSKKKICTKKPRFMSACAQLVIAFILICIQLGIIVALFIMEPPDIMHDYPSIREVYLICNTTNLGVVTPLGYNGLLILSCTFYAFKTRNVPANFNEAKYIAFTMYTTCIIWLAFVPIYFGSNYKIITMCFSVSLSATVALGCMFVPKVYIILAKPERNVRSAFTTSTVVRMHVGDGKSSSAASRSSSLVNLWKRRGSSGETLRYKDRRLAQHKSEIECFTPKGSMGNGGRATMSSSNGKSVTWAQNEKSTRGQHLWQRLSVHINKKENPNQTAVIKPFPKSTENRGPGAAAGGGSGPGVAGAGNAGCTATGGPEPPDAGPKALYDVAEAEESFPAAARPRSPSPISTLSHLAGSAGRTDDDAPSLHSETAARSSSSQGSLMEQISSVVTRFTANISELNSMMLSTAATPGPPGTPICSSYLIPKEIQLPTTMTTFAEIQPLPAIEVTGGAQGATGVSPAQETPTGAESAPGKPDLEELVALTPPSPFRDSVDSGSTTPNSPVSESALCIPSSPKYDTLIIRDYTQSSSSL

In the case of `COC1CCCc2ncc(C#Cc3ccccc3)cc21` (racemic) [Example 1, (rac)-5-Methoxy-3-(phenylethynyl)-5,6,7,8-tetrahydroquinoline], in experiment [1], the h left shift is given as 2.6-fold and the EC50 turned out to be 32.1 nM. Also, at mGluR5 receptors, the r left shift was 4.9-fold and the EC50 was determined as 22.7 nM. On to `COC1CCCc2ncc(C#Cc3cccc(N)n3)cc21` (racemic) [Example 3, (rac)-6-((5-Methoxy-5,6,7,8-tetrahydroquinolin-3-yl)ethynyl)pyridin-2-amine], for which the IC50 in experiment [1] turned out to be 4230 nM. Turning to `COC1CC(C)(C)Cc2ncc(C#Cc3ccccc3)cc21` (racemic) [Example 4, (rac)-5-Methoxy-7,7-dimethyl-3-(phenylethynyl)-5,6,7,8-tetrahydroquinoline], in experiment [1], the IC50 is 341 nM.

With `COC1CC(C)(C)Cc2ncc(C#Cc3cccc(N)n3)cc21` (racemic) [Example 5, (rac)-6-((5-Methoxy-7,7-dimethyl-5,6,7,8-tetrahydroquinolin-3-yl)ethynyl)pyridin-2-amine], the IC50 in experiment [1] stood at 66.7 nM; on mGluR5 receptors (Table A2, pre-incubated 10 minutes before L-quisqualate (100 nM), read-out: rIC50) it was 45.7 nM. Turning to `COC1CC(C)(C)Cc2ncc(C#Cc3cn4ccccc4n3)cc21` (racemic) [Example 6, (rac)-3-(Imidazo[1,2-a]pyridin-2-ylethynyl)-5-methoxy-7,7-dimethyl-5,6,7,8-tetrahydroquinoline], the IC50 in experiment [1] was determined as 695 nM.

Take `COC1CC(C)(C)Oc2ncc(C#Cc3cccc(N)n3)cc21` (racemic) [Example 7, (rac)-6-((4-Methoxy-2,2-dimethyl-3,4-dihydro-2H-pyrano[2,3-b]pyridin-6-yl)ethynyl)pyridin-2-amine]: the IC50 in experiment [1] worked out at 203 nM. Turning to `COC1CC(C)(C)Oc2ncc(C#Cc3cn4ccccc4n3)cc21` (racemic) [Example 8, (rac)-6-(Imidazo[1,2-a]pyridin-2-ylethynyl)-4-methoxy-2,2-dimethyl-3,4-dihydro-2H-pyrano[2,3-b]pyridine], in experiment [1], the IC50 stood at 225 nM. As for `O=C1NCC2(CCCc3ncc(C#Cc4ccccc4)cc32)O1` (racemic) [Example 10, (rac)-3'-(Phenylethynyl)-7',8'-dihydro-6'H-spiro[oxazolidine-5,5'-quinolin]-2-one], the h left shift in experiment [1] is listed as 1.8-fold.

For `CN1CC2(CCCc3ncc(C#Cc4ccccc4)cc32)OC1=O` (racemic) [Example 11, (rac)-3-Methyl-3'-(phenylethynyl)-7',8'-dihydro-6'H-spiro[oxazolidine-5,5'-quinolin]-2-one], in experiment [1], the h left shift is on record as 1.8-fold and the EC50 turned out to be 53.7 nM. At mGluR5 receptors, the r left shift is reported as 2.9-fold and the EC50 stood at 58.6 nM. Consider `O=C1OC2(CCCc3ncc(C#Cc4ccccc4)cc32)CN1c1ccccc1` (racemic) [Example 12, (rac)-3-Phenyl-3'-(phenylethynyl)-7',8'-dihydro-6'H-spiro[oxazolidine-5,5'-quinolin]-2-one], for which, in experiment [1], the h left shift was 1.9-fold and the EC50 came out at 966 nM. At mGluR5 receptors, the EC50 turned out to be 856 nM. For the molecule `CN1CCO[C@@H]2c3cc(C#Cc4ccccc4)cnc3CC[C@@H]21` (racemic) [Example 13, (rac)-cis-4-Methyl-9-(phenylethynyl)-3,4,4a,5,6,10b-hexahydro-2H-[1,4]oxazino[2,3-f]quinoline], in experiment [1], the h left shift is listed as 1.7-fold and the EC50 stood at 425 nM. At mGluR5 receptors, the r left shift is 1.7-fold. `CN1CCC2Cc3ncc(C#Cc4ccccc4)cc3CN2C1=O` (racemic) [Example 57, (rac)-8-Methyl-3-(phenylethynyl)-9,10,10a,11-tetrahydro-5H-pyrimido[1,6-g][1,6]naphthyridin-7(8H)-one]: the IC50 in experiment [1] stood at 190 nM. `COC(=O)N1Cc2cc(C#Cc3cccc(F)c3)cnc2[C@H]2CCC[C@H]21` (racemic) [Example 61, (rac)-cis-Methyl 3-((3-fluorophenyl)ethynyl)-7,8,9,9a-tetrahydro-5H-cyclopenta[h][1,6]naphthyridine-6(6aH)-carboxylate]: in experiment [1], the IC50 worked out at 132 nM.

For the molecule `COC(=O)N1Cc2cc(C#Cc3ccccc3)cnc2[C@H]2CCCC[C@H]21` (racemic) [Example 62, (rac)-cis-Methyl 3-(phenylethynyl)-6a,7,8,9,10,10a-hexahydrobenzo[h][1,6]naphthyridine-6(5H)-carboxylate], the IC50 in experiment [1] was determined as 1400 nM. On to `COC(=O)N1Cc2cc(C#Cc3cccc(F)c3)cnc2[C@H]2CCCC[C@H]21` (racemic) [Example 63, (rac)-cis-Methyl 3-((3-fluorophenyl)ethynyl)-6a,7,8,9,10,10a-hexahydrobenzo[h][1,6]naphthyridine-6(5H)-carboxylate], for which, in experiment [1], the IC50 was determined as 1320 nM.

Take `CC(C)(C)C(=O)N1CCc2ncc(C#Cc3cccc(N)n3)cc2C1` [Example 35, 1-(3-((6-Aminopyridin-2-yl)ethynyl)-7,8-dihydro-1,6-naphthyridin-6(5H)-yl)-2,2-dimethylpropan-1-one]: the IC50 in experiment [1] amounted to 617 nM.

As to `CN(C)C(=O)N1CCc2ncc(C#Cc3ccccc3)cc2C1` [Example 44, N,N-Dimethyl-3-(phenylethynyl)-7,8-dihydro-1,6-naphthyridine-6(5H)-carboxamide], the IC50 in experiment [1] was 247 nM.

In the case of `CN(C)C(=O)N1CCc2ncc(C#Cc3cccc(N)n3)cc2C1` [Example 47, 3-((6-Aminopyridin-2-yl)ethynyl)-N,N-dimethyl-7,8-dihydro-1,6-naphthyridine-6(5H)-carboxamide], the IC50 in experiment [1] is 261 nM. Turning to `CCN(CC)C(=O)N1CCc2ncc(C#Cc3cccc(C#N)c3)cc2C1` [Example 48, 3-((3-Cyanophenyl)ethynyl)-N,N-diethyl-7,8-dihydro-1,6-naphthyridine-6(5H)-carboxamide], the IC50 in experiment [1] stood at 194 nM.

`Cc1cccc(C#Cc2cnc3c(c2)CS(=O)(=O)CC3)c1` [Example 68, 3-(m-Tolylethynyl)-7,8-dihydro-5H-thiopyrano[4,3-b]pyridine 6,6-dioxide]: the IC50 in experiment [1] stood at 75.5 nM. With `CC1(C)c2cc(C#Cc3ccccc3)cnc2CCS1(=O)=O` [Example 75, 5,5-Dimethyl-3-(phenylethynyl)-7,8-dihydro-5H-thiopyrano[4,3-b]pyridine 6,6-dioxide], in experiment [1], the h left shift was 1.6-fold and the EC50 amounted to 971 nM.
